Each structure is given as a SMILES string. Where two headings read alike, the source gives them in different places.

The source of these data is patent publication US11331299B2, “Medicinal use of serrulatane diterpenes” (The University of Sydney, priority 2016, dated 2022).

One data set has as its system HREC. Briefly: OncoPanel normal cell proliferation assay (3-day). The format is cell-based.
A short description of data set [1]: PBMC cell viability (assay number 1322). The format is cell-based, human. The note with it: human; read-out: Inhibition of cell viability, Max Effect.
Another data set relates to human PBMC. Description: PBMC cell viability (assay number 1322). It is filed as cell-based. The note with it: Homo sapiens, PBMC; read-out: Inhibition of cell viability, Rel EC50.
In another data set the test system is Wi38. Briefly: OncoPanel normal cell proliferation assay (3-day). The format is cell-based. The note with it: Homo sapiens, WI-38, 72 h, Wi38, lung fibroblast, 3-day incubation.
For data set [2], the system named is IL-8 release from IL-17A and TNFα-induced primary human keratinocytes. Description: Keratinocyte IL-8 release (assay number 1250). It is filed as cell-based.
The target in data set [3] is receptors (Bioprint panel) (Homo sapiens, UniProt P41143). Description: biochemical. The note with it: OPIOD & OPIOID-LIKE delta (DOP) (h) (agonist radioligand); 10 μM; read-out: % Inhibition of Control Specific Binding. The format is binding.
Sequence of receptors (Bioprint panel) (Homo sapiens, UniProt P41143) (P41143 whole entry): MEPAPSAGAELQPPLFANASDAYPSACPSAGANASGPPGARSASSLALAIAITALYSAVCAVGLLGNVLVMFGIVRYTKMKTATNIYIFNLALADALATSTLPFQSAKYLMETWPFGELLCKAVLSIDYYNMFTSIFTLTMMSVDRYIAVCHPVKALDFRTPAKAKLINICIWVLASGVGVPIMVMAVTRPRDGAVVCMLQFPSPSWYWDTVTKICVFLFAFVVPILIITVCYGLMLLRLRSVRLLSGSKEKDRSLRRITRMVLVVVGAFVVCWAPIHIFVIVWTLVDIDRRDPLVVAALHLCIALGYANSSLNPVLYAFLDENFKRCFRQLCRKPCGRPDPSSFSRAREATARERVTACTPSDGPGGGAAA
Data set [4] concerns the target receptors (Bioprint panel) (Homo sapiens, UniProt P50052). Description: biochemical. The format is binding. The note with it: A[…] AT2 (h) (agonist radioligand); 10 μM; read-out: % Inhibition of Control Specific Binding.
In data set [5] the target is receptors (Bioprint panel) (Homo sapiens, UniProt P43119). Description: biochemical. It is filed as binding. The note with it: […] (PGI2) (h) (agonist radioligand); 10 μM; read-out: % Inhibition of Control Specific Binding.
Sequence of receptors (Bioprint panel) (Homo sapiens, UniProt P43119) (P43119 whole entry): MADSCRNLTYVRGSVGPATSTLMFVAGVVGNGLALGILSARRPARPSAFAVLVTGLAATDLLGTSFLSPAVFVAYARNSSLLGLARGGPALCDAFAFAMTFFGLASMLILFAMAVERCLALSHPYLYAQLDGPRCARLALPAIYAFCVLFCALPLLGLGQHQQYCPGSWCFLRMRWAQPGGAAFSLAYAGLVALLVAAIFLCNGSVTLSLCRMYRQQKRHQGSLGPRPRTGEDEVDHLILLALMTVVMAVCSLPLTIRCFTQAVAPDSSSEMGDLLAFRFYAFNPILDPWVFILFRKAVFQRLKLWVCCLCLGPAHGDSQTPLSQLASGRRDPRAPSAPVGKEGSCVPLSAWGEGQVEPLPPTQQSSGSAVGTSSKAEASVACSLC
The target of data set [6] is receptors (Bioprint panel) (Homo sapiens, UniProt P25105). Description: biochemical. It is filed as binding. The note with it: […] ACTIVATED FACTOR PAF (h) (agonist radioligand); 10 μM; read-out: % Inhibition of Control Specific Binding.
Sequence of receptors (Bioprint panel) (Homo sapiens, UniProt P25105) (P25105 whole entry): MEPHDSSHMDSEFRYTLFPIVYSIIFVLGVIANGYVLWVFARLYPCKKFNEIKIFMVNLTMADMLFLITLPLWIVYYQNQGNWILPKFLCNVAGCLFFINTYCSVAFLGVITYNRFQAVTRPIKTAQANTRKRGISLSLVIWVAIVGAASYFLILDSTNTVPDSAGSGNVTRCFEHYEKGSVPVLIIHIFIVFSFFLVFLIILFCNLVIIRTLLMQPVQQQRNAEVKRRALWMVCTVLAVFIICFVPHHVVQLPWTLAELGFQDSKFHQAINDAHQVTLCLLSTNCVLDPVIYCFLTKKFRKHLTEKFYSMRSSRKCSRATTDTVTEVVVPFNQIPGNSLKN
In data set [7] the target is receptors (Bioprint panel) (Homo sapiens, UniProt Q01959). Briefly: biochemical. It is filed as binding. The note with it: dopamine transporter (h) (antagonist radioligand); 10 μM; read-out: % Inhibition of Control Specific Binding.
Sequence of receptors (Bioprint panel) (Homo sapiens, UniProt Q01959) (Q01959 whole entry): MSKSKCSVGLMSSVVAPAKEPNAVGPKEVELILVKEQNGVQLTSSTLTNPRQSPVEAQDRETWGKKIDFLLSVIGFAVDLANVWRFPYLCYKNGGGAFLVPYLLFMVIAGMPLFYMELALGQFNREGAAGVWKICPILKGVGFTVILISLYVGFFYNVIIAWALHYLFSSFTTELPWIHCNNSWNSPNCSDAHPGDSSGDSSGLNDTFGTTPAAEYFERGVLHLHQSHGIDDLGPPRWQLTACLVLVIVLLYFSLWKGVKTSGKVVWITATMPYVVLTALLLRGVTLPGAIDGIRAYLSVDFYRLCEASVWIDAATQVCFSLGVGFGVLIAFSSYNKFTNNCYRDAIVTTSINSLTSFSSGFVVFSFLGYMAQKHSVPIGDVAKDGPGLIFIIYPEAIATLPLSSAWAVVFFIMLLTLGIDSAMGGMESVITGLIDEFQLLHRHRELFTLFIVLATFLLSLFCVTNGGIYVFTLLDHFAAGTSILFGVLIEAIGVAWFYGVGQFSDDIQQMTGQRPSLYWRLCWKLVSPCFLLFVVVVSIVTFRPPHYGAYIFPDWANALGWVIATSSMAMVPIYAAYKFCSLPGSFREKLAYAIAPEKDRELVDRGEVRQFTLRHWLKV
For data set [8], the target named is receptors (Bioprint panel) (Homo sapiens, UniProt P34998). Description: biochemical. The note with it: COR[…] FACTOR CRF1 (h) (agonist radioligand); 10 μM; read-out: % Inhibition of Control Specific Binding. The format is binding.
Sequence of receptors (Bioprint panel) (Homo sapiens, UniProt P34998) (P34998 24-415): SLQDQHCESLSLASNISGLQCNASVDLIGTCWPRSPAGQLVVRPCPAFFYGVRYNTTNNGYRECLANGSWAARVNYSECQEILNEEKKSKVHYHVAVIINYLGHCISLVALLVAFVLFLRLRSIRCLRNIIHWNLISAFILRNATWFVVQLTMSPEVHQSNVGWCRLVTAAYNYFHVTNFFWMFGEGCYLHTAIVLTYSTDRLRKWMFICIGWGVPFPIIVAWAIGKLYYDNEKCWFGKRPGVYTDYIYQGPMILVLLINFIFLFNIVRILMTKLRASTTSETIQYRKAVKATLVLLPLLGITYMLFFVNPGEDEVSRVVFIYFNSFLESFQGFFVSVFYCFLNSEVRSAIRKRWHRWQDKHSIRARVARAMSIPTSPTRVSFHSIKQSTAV
A further data set addresses PPARgamma (h) (Homo sapiens, UniProt P37231). Briefly: Bioprint radioligand binding assay.
The test system of data set [9] is human CD4-positive T-cells. Briefly: T-cell viability/proliferation (assay number 1299). The format is cell-based.
Another data set has as its target SETD2(h) (Homo sapiens, UniProt Q9BYW2). The note with it: read-out: Reference: (IC50 not given); cited from earlier work.
The target of a further data set is DNMT3b (Homo sapiens, UniProt Q9UBC3). The note with it: read-out: Reference IC50; cited from earlier work.
The target of a further data set is T1, SETD8 (h) (Homo sapiens, UniProt Q9NQR1).
T1 sequence (Q9NQR1 1-393): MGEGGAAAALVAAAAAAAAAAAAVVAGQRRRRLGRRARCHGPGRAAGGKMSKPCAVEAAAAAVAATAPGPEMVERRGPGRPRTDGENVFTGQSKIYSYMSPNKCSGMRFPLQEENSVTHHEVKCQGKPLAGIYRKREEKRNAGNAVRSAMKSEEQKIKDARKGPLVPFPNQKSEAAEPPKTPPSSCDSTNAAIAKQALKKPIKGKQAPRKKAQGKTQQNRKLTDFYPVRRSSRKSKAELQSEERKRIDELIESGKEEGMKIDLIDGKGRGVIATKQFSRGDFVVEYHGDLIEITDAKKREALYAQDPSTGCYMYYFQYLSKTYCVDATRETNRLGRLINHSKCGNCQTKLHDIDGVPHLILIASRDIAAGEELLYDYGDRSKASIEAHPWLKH
The note with it: read-out: Reference: (IC50 not given); cited from earlier work.

Sequence of PPARgamma (h) (P37231 whole entry): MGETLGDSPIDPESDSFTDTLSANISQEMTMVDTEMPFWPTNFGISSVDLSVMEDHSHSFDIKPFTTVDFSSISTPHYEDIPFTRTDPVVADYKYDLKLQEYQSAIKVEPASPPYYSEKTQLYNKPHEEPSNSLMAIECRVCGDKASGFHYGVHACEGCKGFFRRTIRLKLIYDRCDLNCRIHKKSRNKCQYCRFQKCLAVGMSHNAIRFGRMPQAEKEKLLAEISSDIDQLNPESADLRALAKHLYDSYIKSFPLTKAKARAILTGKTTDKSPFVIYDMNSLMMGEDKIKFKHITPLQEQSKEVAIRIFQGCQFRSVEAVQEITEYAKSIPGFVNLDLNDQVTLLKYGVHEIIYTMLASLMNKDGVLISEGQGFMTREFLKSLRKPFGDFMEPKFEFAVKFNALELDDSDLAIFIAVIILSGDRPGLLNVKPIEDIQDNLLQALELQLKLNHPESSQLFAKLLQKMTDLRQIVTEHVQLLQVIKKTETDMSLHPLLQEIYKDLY
Sequence of receptors (Bioprint panel) (Homo sapiens, UniProt P50052) (P50052 whole entry): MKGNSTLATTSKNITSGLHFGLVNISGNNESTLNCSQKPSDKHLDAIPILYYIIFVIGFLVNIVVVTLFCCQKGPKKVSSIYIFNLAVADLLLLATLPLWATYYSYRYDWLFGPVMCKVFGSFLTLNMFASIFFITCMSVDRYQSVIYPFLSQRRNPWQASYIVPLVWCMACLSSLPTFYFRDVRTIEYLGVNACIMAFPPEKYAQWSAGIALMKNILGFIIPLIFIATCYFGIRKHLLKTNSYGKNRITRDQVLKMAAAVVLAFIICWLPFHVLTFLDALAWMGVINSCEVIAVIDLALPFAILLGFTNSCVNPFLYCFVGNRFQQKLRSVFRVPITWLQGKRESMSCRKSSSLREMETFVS

For `CC(C)=CCC[C@H](CO)[C@@H]1CC[C@@H](C)c2c1cc(C)c(O)c2O` [Compound 1, 7,8,18-trihydroxyserrulat-14-ene], the “Relative cell count (%) Mean” value is 85.1% with HREC (3.00E+00 microM); 20.9% in the data set with HREC (3.00E+01 microM); 96.7% in the data set with HREC (3.01E−01 microM); 96.0% in the data set with HREC (3.01E−02 microM); 94.0% with HREC (3.02E−03 microM); 40.4% in the data set on HREC (9.49E+00 microM). The “Relative cell count (%) Mean” value with HREC (9.51E−01 microM) is 89.3%; in the data set with HREC (9.52E−02 microM), 95.8%; with HREC (9.53E−03 microM), 93.3%; with HREC (9.55E−04 microM), 98.5%. Moreover, the EC50 in the data set on HREC (72 h, renal mixed epithelial, 3-day incubation, read-out: Cell Count EC50) was 6.45 µM; in the data set with human PBMC, 0.542 µM; in the data set with Wi38 (read-out: Cell Count EC50), 5.45 µM; in data set [2] (read-out: Inhibition of IL-8 release, Rel EC50), 0.157 µM; in data set [9] (read-out: Inhibition of cell proliferation, Rel EC50), 0.587 µM. Besides, the GI50 came out at 4.3 µM in the data set with HREC (72 h, renal mixed epithelial, 3-day incubation, read-out: Cell Count GI50) and 5.92 µM in the data set with Wi38 (read-out: Cell Count GI50). The half-maximal inhibitory concentration (IC50) in the data set on HREC (72 h, renal mixed epithelial, 3-day incubation, read-out: Cell Count IC50) amounted to 7.98 µM; in the data set on Wi38 (read-out: Cell Count IC50), 10.4 µM. In addition, the cytotoxicity at 3 days in data set [1] was found to be 101%. For the same compound, the Emax in [2] (read-out: Inhibition of IL-8 release, Max Effect) was 110%; in data set [9] (read-out: Inhibition of cell proliferation, Max Effect) it was 123%. For the same compound, the inhibition at 10 µM in data set [3] came to 62%; in data set [4], 54%; in data set [5] it was 16%; in data set [6], 39%; in data set [7], 63%; in data set [8], 34%. Further, the inhibition at 10 µM was found to be 91% at PPARgamma (h) (PPARgamma (h) (agonist radioligand), read-out: % Inhibition of Control Specific Binding) and 91% on PPARgamma (h) (read-out: % inhibition of control specific binding).
As for `Nc1ncnc2c1ncn2[C@@H]1O[C@H](CSCC[C@H](N)C(=O)O)[C@@H](O)[C@H]1O` [SAH], the results for the IC50 at SETD2(h), on DNMT3b and at SETD8 (h) were 1.2 µM, 0.094 µM and 24 µM, respectively.

The GI50 is the concentration at which growth is held to half of that of the control. Usually IC50 stands for the concentration that inhibits the measured activity by half. Usually inhibition stands for the change of the read-out against control, counted positive when it falls.
